# “Also recorded” adds a separate entry of the source. Marks after values point to notes of the source that are not given here.
# How the values were obtained:
# [1] = system: normal human dermal fibroblasts (NHDF); experiment: MTT viability assay, NHDF; format: cell-based; details: tested 1–500 µM
# Method: (§1) When the confluence was greater than 70%, adherent cell lines were detached from the bottle surface with a TrypLE solution and then used in assays or reduced. The cells were collected into centrifuge tubes and centrifuged at 1000× g for 5 min at room temperature. The supernatant was removed to dry. The cell pellets were then resuspended in an appropriate medium. The cells were counted using a Bürker chamber and resuspended in 96-well plates to a cell density of 10,000 cells per well for MTT assay. For the rhodamine accumulation test and the detection of apoptosis assay, cells were seeded at a density of 30,000 per well. In the migration assay, cells were seeded at a density of 20,000 per well, and monolayer formation was awaited.
# (§2) In this study, normal human dermal fibroblasts (NHDFs), breast cancer cells (MCF7), human lung adenocarcinoma cells (A549), murine fibroblasts (L929), colon adenocarcinoma cells (HT29), and colorectal adenocarcinoma cells (LoVo) were used. All cell lines were cultured in the recommended media. […] The human lung adenocarcinoma cell line A549 and breast cancer cell line MCF-7 were obtained from the ECACC. These cell lines were cultured in Eagle’s minimal essential medium (MEM). Murine fibroblast L929 (Sigma-Aldrich, Merck Group, Headquarters, Darmstadt, Germany; the European Collection of Authenticated Cell Cultures—ECACC) cells were grown in DMEM. […] All media were supplemented with 10% FBS and 100 µg/mL of penicillin–streptomycin.
# (§3) All compounds were dissolved in DMSO and the reference drugs were dissolved in physiological saline to concentrations of 10 mM. Concentrations from 1 to 500 μM in the media recommended for the cell lines were prepared for the tests.
# (§4) All of the synthesized derivatives were evaluated via the MTT assay. All cell lines were seeded into 96-well plates at a density of 10,000 cells per well. To allow the cells to adhere to the surface of the plates, they were incubated overnight before the application of the test compounds. […] The tests were performed for concentrations of 1, 5, 10, 25, 50, 100, 250, and 500 μM. The solutions of the test compounds were removed from the culture on the 96-well plates. […] The supernatant was then removed. The violet crystal was dissolved in isopropanol for 30 min by shaking. Absorbance was measured at 570 nm.
# (§5) Biological assays were performed in three independent replicates, and each replicate used four samples. Three repetitions were made for the ELISA determinations. For the assessment of cytotoxicity, mathematical models were developed using the GraphPad PRISM software, based on which CC50 was determined. The values of CC50 were estimated based on nonlinear regression using the dependence of the biological effect on the molar concentrations of the compounds (four-parameter logistic model with Hill slope).
# [2] = system: primary colon adenocarcinoma (HT29); experiment: MTT viability assay, HT29; format: cell-based, human
# Method: as §1, §2, §3, §4, §5
# [3] = target: T1, P-glycoprotein (P-gp) in HT29 cells (Homo sapiens, UniProt P08183); experiment: Rhodamine-123 (Rh-123) accumulation assay; format: cell-based; details: HT29, 24 h, over all tested concentrations (1–20 μM)
# T1 construct: evaluate their effects on the efflux activity of P-gp in HT29 cells; host or cells: HT29 colon adenocarcinoma cells
# T1 sequence (P08183 whole entry): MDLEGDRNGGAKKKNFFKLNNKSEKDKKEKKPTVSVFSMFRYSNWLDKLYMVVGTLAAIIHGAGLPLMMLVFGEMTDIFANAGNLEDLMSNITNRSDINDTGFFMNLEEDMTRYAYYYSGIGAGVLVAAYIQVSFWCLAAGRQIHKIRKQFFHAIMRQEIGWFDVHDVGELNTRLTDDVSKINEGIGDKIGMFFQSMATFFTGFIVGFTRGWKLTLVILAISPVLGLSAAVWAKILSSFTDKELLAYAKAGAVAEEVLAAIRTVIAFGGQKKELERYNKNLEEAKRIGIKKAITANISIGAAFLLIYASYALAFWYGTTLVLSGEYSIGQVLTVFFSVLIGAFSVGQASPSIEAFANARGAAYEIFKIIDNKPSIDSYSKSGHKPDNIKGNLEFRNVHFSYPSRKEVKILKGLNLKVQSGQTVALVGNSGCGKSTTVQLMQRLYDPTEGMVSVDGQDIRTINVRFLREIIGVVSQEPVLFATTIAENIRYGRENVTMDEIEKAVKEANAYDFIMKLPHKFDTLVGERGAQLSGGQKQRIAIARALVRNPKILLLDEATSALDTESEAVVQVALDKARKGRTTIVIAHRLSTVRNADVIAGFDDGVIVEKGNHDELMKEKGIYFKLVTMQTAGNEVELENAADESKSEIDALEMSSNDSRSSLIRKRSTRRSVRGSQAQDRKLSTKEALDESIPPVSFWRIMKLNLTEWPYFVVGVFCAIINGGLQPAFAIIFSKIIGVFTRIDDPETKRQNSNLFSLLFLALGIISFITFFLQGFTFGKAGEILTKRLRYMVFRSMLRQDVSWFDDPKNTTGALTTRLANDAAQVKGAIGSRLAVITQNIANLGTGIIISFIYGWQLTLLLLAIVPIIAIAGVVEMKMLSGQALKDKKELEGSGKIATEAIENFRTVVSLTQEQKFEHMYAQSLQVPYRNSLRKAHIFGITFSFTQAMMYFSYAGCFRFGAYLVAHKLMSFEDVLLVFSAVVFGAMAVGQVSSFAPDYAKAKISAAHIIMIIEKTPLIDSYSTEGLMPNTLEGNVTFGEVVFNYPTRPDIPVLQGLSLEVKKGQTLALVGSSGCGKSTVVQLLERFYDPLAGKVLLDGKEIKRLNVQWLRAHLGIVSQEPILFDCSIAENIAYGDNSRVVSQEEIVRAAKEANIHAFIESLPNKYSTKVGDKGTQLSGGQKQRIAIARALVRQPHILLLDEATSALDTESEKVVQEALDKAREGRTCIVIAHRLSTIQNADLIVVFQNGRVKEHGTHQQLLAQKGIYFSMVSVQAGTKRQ
# Method: as §1
# The level of significance was set at p < 0.05.
# [4] = system: lung adenocarcinoma (A549); experiment: MTT viability assay, A549; format: cell-based, human
# Method: as §1, §2, §3, §4, §5
# [5] = system: murine fibroblasts (L929); experiment: MTT viability assay, L929; format: cell-based; details: tested 1–500 µM
# Method: as §1, §2, §3, §4, §5
# [6] = system: HT29 primary colon adenocarcinoma cells; experiment: Detection of apoptosis (Annexin V FITC / propidium iodide); format: cell-based, human; design: unit not given here; details: 24 h
# Method: as §1, with “All cell lines were grown in 5% CO2 at 95% humidity and 37 °C, with both morphology and confluence assessed twice per week. When” for “When”
# HT29 primary colon adenocarcinoma cells were grown in 96-well plates for 24 h. The 5 selected derivatives were added at concentrations of 1, 2, 5, and 10 µM, and then incubated for 24 h. The mixture of Annexin V conjugated with fluorescein and propidium iodide in PBS with Mg^2+ and Ca^2+ ions (Thermo Fisher Scientific, Waltham, MA, USA) was then applied. The incubation lasted 20 min at 37 °C. Pictures were taken using a fluorescence microscope. Thirteen images were taken from each well using an EVOS FL fluorescence microscope, with three replications for each compound. The open ImageJ space was used to analyze the number of cells. The Thermo Fisher Dead Cell Apoptosis Kit with Annexin V FITC and Propidium Iodide (PI) detects phosphatidylserine extrusion in apoptotic cells using Annexin V conjugated with a green fluorescent FITC dye and dead cells stained by PI with red fluorescence.
# [7] = system: breast adenocarcinoma (MCF7); experiment: MTT viability assay, MCF7; format: cell-based, human; details: MCF7, MTT, tested 1–500 µM
# Method: as §1, §2, §3, §4, §5
# Jurkat T-cell = system: Jurkat T-cell; design: method as in PMID 32759841; details: cited from earlier work
# HT29 = system: HT29; design: method as in PMID 32759841; details: estimated based on data taken from reference; cited from earlier work
smiles,measurement,setting,value
"CNc1ncnc2oc(-c3c(C)noc3N)nc12 [Compound 3a, 2-(5-Amino-3-methylisoxazol-4-yl)-7-N-methylaminooxazolo[5,4-d]pyrimidine]",CC50 ± SD,[1],Non-toxic
same,SI (selectivity index),[2]; CC50 NHDF / CC50 HT29,>>1
same,CC50,"[2]; Homo sapiens, HT-29, HT29, MTT, tested 1–500 µM",159 ± 12.1 µM
same,intracellular increase in rhodamine accumulation,[3],no intracellular increase
same,SI (selectivity index),[4]; CC50 NHDF / CC50 A549,>>1 ^c
same,CC50,"[4]; Homo sapiens, A549, MTT, tested 1–500 µM",245 ± 19 µM
same,CC50 ± SD,[5],no toxic activity; also recorded: Non-toxic ^b
same,apoptosis mean,[6]; 1 μM,6.89
same,late apoptosis mean,[6]; 1 μM,11.16
same,necrosis mean,[6]; 1 μM,4.43
same,percent live (viable) cells,[6]; 1 μM,77.51
same,apoptosis mean,[6]; 2 μM,5.35
same,late apoptosis mean,[6]; 2 μM,11.15
same,necrosis mean,[6]; 2 μM,9.07
same,percent live (viable) cells,[6]; 2 μM,74.42
same,apoptosis mean,[6]; 5 μM,9.38
same,late apoptosis mean,[6]; 5 μM,11.51
same,necrosis mean,[6]; 5 μM,2.76
same,percent live (viable) cells,[6]; 5 μM,76.34
same,apoptosis mean,[6]; 10 μM,10.99
same,late apoptosis mean,[6]; 10 μM,12.07
same,necrosis mean,[6]; 10 μM,5.55
same,percent live (viable) cells,[6]; 10 μM,71.40
same,CC50 ± SD,[7],no cytotoxic activity
Cc1nc(NCCCN(C)C)c2nc(-c3c(C)noc3N)oc2n1 [SCM9],expression of apoptosis-modulating proteins,Jurkat T-cell; Jurkat T-cell model,did not alter
same,"expression of MAPK pathway components JNK, p38α, and p38β",Jurkat T-cell,increased
same,CC50,HT29,39.1 ± 7.79 µM

# Reference: publication PMC9569971, “New Oxazolo[5,4-d]pyrimidines as Potential Anticancer Agents: Their Design, Synthesis, and In Vitro Biological Activity Research” (International Journal of Molecular Sciences, 2022)
